Experimental data as given in ChEMBL document CHEMBL1201862, “PubChem BioAssay data set” (2004).
Calls of active or inactive are those of the source.

Experiments:
[1] = biological target: T1, Calpain-2 catalytic subunit (Sus scrofa, UniProt P43367); experiment: pig calpain II inhibitor potency, dose response, biochemical, fluorogenic peptide substrate (AID 1420); format: functional
T1 sequence (P43367 whole entry): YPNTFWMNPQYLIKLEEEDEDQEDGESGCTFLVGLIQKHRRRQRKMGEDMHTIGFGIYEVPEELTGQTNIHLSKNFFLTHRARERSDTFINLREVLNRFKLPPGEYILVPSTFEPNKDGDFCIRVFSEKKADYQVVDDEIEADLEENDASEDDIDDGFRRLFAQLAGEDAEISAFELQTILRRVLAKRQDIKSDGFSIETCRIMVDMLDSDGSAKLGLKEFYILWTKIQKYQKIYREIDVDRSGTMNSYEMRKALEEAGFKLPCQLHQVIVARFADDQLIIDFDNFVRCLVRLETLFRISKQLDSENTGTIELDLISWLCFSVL

[2] = biological target: Intestinal-type alkaline phosphatase (Homo sapiens, UniProt P09923); experiment: human intestinal alkaline phosphatase activators, dose response, biochemical, luminescence, uHTS hits (AID 463120); format: functional
[3] = biological target: DNA damage-inducible transcript 3 protein (Mus musculus, UniProt P35639); format: functional, Cricetulus griseus
[4] = Luminescence Cell-Based Dose Response HTS to Identify Activators of Luciferase Translation or Activity in H4 […] Cells. [Related pubchem assays: 1829 (Project Summary), 1814 (Primary HTS)]; format: functional
[5] = Luminescence Cell-Based Dose Retest to Confirm Inhibitors of Cancer Stem Cells. [Related pubchem assays (depositor defined):AID2717, AID2721]; format: functional; conditions: Homo sapiens
INS1 = experiment: beta cell apoptosis inhibitors, cytokine rescue, dose response, luminescence, retest (AID 449756); format: functional, cell-based; conditions: Rattus norvegicus;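 note: cell death triggered by IL-1 beta plus TNF-alpha plus IFN-gamma mixture; protective hits raise ATP signal compared with cytokine alone wells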
H4 = experiment: Luminescence Cell-Based Dose Response HTS to Identify Activators of 5'UTR Stem-Loop Driven Prion Protein mRNA Translation in H4 Neuroglioblastoma Cells. [Related pubchem assays: 1829 (Project Summary), 1814 (Primary HTS)]; format: functional; conditions: Homo sapiens
[6] = Luminescence Cell-Based Dose Confirmation HTS to Identify Activators of 5'UTR Stem-Loop Driven Alpha-Synuclein mRNA Translation in H4 Neuroglioblastoma Cells. [Related pubchem assays: 1829 (Project Summary), 1814 (Primary HTS)]; format: functional
[7] = growth suppression of beta-catenin-knockout colon cells, dose response, cell-based, HCT116, human colon tumor (AID 1045); format: functional;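 note: HCT116 colon tumor cells with beta catenin knocked out; cells exposed to compound for 60 hours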
[8] = growth suppression of PTEN-null colon cells, dose response, cell-based, HCT116 PTEN knockout (AID 1047); format: functional;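 note: HCT116 colon tumor cells with PTEN knocked out; cells exposed to compound for 60 hours before readout; potency for loss of cell viability measured by luminescence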
Cytochrome P450 3A4 = Cytochrome P450 3A4 (Homo sapiens, UniProt P08684);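 note: CYP3A4 tested as one member of a cytochrome P450 panel screen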
Cytochrome P450 2C9 = Cytochrome P450 2C9 (Homo sapiens, UniProt P11712)
Coagulation factor XII = biological target: T2, Coagulation factor XII (Homo sapiens, UniProt P00748); format: functional;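 note: activated factor XIIa alpha cleaving a fluorogenic AMC peptide substrate; inhibitor potency from loss of enzyme activity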
T2 sequence (P00748 whole entry): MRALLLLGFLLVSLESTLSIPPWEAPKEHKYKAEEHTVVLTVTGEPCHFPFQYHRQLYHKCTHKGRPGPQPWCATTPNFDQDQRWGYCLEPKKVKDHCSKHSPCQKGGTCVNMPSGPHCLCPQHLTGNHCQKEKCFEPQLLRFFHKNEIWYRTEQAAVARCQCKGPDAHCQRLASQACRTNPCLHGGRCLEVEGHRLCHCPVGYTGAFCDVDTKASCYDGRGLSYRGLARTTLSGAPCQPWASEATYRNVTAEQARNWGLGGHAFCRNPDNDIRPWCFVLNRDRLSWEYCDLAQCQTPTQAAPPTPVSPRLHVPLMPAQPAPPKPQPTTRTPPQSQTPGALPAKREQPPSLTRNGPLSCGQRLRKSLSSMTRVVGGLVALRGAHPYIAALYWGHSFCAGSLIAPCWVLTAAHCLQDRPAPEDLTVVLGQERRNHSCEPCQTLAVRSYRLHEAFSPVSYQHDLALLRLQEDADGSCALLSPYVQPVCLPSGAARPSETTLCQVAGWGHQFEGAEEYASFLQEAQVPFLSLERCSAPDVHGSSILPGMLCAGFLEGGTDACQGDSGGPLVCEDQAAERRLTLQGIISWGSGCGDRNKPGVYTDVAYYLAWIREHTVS

[9] = biological target: G-protein coupled receptor 55 (Homo sapiens, UniProt Q9Y2T6); experiment: GPR55 agonists via beta-arrestin recruitment, primary screen, imaging, U2OS cells, beta-arrestin-GFP redistribution (AID 1961); format: functional
[10] = biological target: T3, Heat shock factor protein 1 (Mus musculus, UniProt P38532); experiment: inhibition of MG132-induced HSE-luciferase signal, confirmation, cell-based, NIH3T3, luminescence, dose retest (AID 2382); format: functional;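 note: NIH3T3 fibroblasts with HSF1-driven luciferase reporter stressed by proteasome inhibitor MG132; luminescence from HSF1-driven luciferase expression after 8 hours of MG132 stress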
T3 sequence (P38532 whole entry): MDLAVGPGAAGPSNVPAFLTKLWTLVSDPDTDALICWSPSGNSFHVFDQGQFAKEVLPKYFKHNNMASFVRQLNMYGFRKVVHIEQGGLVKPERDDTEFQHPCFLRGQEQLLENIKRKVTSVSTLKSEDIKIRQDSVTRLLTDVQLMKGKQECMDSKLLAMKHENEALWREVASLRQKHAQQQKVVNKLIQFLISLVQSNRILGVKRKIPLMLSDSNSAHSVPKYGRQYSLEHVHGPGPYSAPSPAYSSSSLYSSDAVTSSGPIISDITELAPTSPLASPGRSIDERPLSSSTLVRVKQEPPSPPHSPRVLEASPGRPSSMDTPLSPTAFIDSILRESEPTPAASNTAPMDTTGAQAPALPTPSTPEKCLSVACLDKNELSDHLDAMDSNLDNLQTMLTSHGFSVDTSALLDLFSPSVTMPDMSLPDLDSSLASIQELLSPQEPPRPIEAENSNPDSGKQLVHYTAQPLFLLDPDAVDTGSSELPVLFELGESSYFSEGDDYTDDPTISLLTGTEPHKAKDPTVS

[11] = biological target: T4, Tyrosine-protein phosphatase non-receptor type 22 (Homo sapiens, UniProt Q9Y2R2); format: functional
T4 sequence (Q9Y2R2 whole entry): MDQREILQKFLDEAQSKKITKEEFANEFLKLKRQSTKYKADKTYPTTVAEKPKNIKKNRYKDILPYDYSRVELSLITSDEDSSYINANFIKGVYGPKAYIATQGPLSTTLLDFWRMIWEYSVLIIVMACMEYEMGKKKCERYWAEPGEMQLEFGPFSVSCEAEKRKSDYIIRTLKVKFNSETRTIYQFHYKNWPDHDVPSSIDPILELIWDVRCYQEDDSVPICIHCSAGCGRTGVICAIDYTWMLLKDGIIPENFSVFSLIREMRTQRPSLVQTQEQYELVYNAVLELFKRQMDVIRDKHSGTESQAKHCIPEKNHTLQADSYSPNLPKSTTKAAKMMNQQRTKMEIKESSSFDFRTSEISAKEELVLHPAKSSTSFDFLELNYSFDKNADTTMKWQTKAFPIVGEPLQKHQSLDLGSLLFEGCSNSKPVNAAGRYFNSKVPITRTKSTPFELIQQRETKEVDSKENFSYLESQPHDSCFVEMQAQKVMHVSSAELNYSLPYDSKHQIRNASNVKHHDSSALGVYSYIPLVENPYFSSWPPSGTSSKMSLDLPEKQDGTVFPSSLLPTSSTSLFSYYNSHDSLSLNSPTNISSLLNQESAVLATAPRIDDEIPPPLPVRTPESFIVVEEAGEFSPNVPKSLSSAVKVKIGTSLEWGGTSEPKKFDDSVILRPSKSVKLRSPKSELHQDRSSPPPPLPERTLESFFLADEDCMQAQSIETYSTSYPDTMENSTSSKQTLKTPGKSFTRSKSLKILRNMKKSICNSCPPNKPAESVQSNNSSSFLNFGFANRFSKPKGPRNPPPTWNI

[12] = biological target: T5, Tyrosine-protein phosphatase non-receptor type 7 (Homo sapiens, UniProt P35236); format: functional
T5 sequence (P35236 whole entry): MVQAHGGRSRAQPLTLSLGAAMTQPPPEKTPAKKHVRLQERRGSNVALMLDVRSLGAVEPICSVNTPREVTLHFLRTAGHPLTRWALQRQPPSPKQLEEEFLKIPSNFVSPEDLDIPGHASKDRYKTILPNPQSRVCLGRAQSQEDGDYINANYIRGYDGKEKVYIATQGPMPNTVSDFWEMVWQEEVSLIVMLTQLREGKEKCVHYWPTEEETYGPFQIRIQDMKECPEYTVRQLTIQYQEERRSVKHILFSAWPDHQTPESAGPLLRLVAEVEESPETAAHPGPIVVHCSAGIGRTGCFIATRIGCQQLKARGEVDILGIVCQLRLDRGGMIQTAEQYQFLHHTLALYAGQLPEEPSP

[13] = biological target: T4, Tyrosine-protein phosphatase non-receptor type 22; format: functional; remark: listed apart in the source
Hexokinase = Hexokinase (Trypanosoma brucei, UniProt Q38C41); experiment: Confirmation assay for inhibitors of Trypanosoma brucei hexokinase 1-Analogue-first series. [Related pubchem assays (depositor defined):AID1430, AID1632, AID2516, AID2560, AID2579, AID2600, AID449725, AID492951]; format: functional
HEK293 = experiment: SAR analysis of compounds that are cytotoxic to HEK293 - Set 3. [Related pubchem assays (depositor defined):AID1575, AID1578, AID1848, AID1849, AID2001, AID2333, AID2334, AID2335, AID2337, AID2469]; format: functional, cell-based; conditions: Homo sapiens
[14] = biological target: Nucleotide-binding oligomerization domain-containing protein 2 (Homo sapiens, UniProt Q9HC29); experiment: NOD2 signaling inhibitors, analog potency, SAR follow-up, cell-based, set 3 (AID 2799); format: functional
Tumor necrosis factor = Tumor necrosis factor (Homo sapiens, UniProt P01375); experiment: TNFa-triggered NF-kB activation inhibitors, SAR follow-up, cell-based, set 3 (AID 2801); format: functional
[15] = biological target: T6, Nucleotide-binding oligomerization domain-containing protein 1 (Homo sapiens, UniProt Q9Y239); experiment: SAR analysis of compounds that inhibit NOD1 - Set 3. [Related pubchem assays (depositor defined):AID1566, AID1575, AID1578, AID1849, AID1852, AID2333, AID2335, AID2466]; format: functional
T6 sequence (Q9Y239 whole entry): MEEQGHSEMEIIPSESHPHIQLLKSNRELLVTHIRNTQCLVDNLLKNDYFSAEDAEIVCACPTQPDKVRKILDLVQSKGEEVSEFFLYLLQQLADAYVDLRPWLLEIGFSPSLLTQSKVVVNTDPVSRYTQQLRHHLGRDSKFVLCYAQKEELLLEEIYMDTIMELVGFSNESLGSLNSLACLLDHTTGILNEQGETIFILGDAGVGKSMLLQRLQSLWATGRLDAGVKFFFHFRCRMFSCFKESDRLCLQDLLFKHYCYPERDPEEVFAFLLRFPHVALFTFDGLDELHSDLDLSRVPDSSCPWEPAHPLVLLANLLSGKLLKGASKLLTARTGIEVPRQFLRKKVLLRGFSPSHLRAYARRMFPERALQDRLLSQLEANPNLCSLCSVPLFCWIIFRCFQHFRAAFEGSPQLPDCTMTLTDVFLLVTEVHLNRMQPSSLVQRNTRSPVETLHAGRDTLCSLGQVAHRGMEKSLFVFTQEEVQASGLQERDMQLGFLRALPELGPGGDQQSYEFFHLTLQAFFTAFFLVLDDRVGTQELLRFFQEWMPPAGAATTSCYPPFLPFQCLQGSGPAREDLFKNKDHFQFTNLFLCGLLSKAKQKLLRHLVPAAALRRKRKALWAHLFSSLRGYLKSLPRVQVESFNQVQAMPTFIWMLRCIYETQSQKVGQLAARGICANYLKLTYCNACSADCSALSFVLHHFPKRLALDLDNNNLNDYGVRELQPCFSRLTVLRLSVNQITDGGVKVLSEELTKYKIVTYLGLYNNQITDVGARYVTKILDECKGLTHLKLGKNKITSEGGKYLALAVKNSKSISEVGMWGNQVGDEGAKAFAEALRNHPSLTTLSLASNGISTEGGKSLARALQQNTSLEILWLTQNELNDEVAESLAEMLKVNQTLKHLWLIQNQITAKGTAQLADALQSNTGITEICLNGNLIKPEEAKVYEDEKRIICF

Sequence of Cytochrome P450 3A4 (P08684 whole entry): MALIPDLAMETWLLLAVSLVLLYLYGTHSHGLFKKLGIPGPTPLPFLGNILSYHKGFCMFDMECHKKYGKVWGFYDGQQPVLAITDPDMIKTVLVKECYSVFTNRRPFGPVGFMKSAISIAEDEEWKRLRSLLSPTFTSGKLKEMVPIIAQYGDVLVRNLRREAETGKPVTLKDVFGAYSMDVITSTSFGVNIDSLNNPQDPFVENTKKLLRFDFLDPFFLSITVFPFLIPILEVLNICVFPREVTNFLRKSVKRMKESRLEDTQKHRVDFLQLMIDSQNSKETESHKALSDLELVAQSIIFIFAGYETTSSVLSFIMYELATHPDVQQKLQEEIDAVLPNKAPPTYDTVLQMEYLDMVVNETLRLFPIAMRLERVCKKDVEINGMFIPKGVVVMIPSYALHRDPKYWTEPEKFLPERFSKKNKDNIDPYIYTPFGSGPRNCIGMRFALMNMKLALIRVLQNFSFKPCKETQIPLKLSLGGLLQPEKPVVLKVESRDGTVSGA
Sequence of Nucleotide-binding oligomerization domain-containing protein 2 (Q9HC29 whole entry, the tested form may be a part): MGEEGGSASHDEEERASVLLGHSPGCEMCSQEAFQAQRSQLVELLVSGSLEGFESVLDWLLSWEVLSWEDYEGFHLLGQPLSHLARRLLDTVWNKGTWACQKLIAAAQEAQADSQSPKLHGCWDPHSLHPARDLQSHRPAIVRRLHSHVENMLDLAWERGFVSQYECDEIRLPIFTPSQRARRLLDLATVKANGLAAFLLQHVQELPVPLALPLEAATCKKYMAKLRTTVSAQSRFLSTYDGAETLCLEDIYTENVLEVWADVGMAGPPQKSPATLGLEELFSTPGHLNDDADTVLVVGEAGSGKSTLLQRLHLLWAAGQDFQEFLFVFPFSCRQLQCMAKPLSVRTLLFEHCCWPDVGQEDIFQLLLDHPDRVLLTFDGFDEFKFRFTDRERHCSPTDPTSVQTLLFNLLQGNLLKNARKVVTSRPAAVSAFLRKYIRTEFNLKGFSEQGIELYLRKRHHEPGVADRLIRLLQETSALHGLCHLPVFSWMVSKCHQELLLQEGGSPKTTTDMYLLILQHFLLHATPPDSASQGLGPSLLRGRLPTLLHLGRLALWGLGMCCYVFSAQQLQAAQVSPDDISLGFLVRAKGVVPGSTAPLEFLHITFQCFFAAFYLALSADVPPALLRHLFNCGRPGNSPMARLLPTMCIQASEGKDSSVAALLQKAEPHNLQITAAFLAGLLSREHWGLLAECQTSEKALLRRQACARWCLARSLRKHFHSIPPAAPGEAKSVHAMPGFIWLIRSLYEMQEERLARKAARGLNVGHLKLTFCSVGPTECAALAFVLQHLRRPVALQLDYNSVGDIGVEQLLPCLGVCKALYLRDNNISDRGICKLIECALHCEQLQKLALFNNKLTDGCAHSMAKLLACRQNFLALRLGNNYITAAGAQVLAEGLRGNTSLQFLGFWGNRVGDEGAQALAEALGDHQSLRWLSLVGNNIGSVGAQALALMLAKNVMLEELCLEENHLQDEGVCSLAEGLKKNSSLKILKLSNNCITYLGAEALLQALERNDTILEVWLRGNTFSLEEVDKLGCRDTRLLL
Sequence of Tumor necrosis factor (P01375 whole entry, the tested form may be a part): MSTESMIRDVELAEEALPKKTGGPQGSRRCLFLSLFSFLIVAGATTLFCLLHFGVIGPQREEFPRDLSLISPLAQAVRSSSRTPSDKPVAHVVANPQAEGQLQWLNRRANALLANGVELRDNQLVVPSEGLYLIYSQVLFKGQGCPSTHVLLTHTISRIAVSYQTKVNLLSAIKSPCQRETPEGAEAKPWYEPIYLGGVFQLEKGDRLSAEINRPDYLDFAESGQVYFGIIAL
Sequence of DNA damage-inducible transcript 3 protein (P35639 whole entry): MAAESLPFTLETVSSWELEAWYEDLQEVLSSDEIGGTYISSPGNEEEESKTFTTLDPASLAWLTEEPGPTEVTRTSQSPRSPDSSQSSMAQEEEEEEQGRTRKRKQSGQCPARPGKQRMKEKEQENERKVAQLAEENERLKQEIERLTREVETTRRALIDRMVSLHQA
Sequence of Intestinal-type alkaline phosphatase (P09923 whole entry): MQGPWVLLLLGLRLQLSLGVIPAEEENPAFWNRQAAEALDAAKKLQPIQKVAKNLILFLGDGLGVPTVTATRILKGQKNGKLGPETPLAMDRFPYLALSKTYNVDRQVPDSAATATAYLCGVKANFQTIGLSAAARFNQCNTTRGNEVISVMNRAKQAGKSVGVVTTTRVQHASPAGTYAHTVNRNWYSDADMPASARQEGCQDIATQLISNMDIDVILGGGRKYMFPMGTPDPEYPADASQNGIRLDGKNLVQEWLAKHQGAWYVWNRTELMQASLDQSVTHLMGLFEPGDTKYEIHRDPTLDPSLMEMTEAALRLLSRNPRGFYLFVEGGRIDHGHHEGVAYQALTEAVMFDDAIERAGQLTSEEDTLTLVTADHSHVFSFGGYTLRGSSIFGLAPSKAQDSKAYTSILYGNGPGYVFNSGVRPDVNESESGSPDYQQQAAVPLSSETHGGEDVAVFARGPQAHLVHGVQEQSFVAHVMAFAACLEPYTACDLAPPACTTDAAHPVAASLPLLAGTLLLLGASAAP
Sequence of Cytochrome P450 2C9 (P11712 whole entry): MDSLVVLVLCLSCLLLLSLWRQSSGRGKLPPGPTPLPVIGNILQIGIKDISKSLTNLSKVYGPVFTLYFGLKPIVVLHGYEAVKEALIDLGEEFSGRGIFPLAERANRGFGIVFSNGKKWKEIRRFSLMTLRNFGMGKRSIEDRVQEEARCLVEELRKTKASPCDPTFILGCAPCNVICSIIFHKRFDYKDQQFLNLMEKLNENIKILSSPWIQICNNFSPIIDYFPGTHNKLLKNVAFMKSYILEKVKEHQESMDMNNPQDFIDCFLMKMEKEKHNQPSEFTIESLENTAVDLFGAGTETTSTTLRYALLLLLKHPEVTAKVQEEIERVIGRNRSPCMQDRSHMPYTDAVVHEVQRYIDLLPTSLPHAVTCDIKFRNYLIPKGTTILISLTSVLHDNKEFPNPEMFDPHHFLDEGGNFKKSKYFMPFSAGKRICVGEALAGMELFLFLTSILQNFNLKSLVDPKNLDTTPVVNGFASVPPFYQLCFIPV
Sequence of G-protein coupled receptor 55 (Q9Y2T6 whole entry): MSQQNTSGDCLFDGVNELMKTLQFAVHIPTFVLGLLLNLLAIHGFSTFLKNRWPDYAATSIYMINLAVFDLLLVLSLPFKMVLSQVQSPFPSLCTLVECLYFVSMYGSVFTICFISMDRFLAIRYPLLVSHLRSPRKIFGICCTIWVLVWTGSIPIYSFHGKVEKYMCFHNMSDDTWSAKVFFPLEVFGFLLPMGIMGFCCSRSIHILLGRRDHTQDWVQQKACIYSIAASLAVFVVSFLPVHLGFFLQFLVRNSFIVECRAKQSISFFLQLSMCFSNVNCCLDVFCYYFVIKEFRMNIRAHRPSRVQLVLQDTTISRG
Sequence of Hexokinase (Q38C41 whole entry): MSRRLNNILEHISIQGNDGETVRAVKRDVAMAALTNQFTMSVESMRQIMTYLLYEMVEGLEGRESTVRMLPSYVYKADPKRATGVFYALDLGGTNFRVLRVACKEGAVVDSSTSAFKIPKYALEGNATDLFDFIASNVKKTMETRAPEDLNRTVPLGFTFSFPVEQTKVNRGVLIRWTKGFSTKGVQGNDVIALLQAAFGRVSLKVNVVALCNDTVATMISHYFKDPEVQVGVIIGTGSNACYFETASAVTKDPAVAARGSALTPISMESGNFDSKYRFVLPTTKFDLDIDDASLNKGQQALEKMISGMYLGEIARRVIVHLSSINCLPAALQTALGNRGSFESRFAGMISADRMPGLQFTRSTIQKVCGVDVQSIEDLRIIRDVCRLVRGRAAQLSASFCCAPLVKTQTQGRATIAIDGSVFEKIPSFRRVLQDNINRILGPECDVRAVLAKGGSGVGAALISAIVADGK

Cc1cc2cc3c(cc2nc1SCC(=O)Nc1nc(C)c(C)s1)OCO3
IC50 [1]: 24.1 µM (not active)
EC50 [2]: 25 µM (active)

C=C(C(=O)c1ccccc1)C(C)C(=C)C(=O)c1ccccc1
Absolute IC50 (CHOP) [3]: 10 µM
EC50 [4]: > 120 µM (not active)
AC50 [5]: 2.33 µM (active)
AC50 (INS1): 7.97 µM (active)
EC50 (H4): > 120 µM (not active)
EC50 [6]: 7.98 µM (active)
EC50 [7]: 1.14 µM (active)
EC50 [8]: 1.65 µM (active)

Cc1ccccc1NC(=O)c1cccc2nc3ccccc3nc12
EC50 [7]: 21.9 µM (active)
EC50 [8]: 23.8 µM (active)
AC50 (Cytochrome P450 3A4): inconclusive
AC50 (Cytochrome P450 2C9): 8.91 µM (inconclusive)
IC50 (Coagulation factor XII): > 50 µM (inactive)

COc1ccc(F)cc1C(=O)C1CCCN(Cc2cccn2-c2ccccn2)C1 (stereo unspecified)
EC50 [9]: 8.93 µM (active)
EC50 [10]: > 195 µM (not active)

COc1ccc(C2C(C(C)=O)=C(O)C(=O)N2c2nccs2)cc1OC (stereo unspecified)
IC50 (Coagulation factor XII): > 50 µM (inactive)

Cc1nn(Cc2cccc(C(=O)NC34CC5CC(CC(C5)C3)C4)c2)c(C)c1Br
IC50 [11]: > 79.4 µM (inactive)
IC50 [12]: > 79.4 µM (inactive)
IC50 [13]: > 79.4 µM (inactive)

COc1ccc(NC(=O)c2ccc(Cl)cc2C(=O)O)cc1
IC50 (Hexokinase): > 25 µM (inactive)

Nc1nc2ccccc2n1S(=O)(=O)c1cccc2ccccc12
IC50 (HEK293): > 20 µM (inactive)
IC50 [14]: > 20 µM (inactive)
IC50 (Tumor necrosis factor): > 20 µM (inactive)
IC50 [15]: > 20 µM (inactive)
